# From patent publication US20250326714A1, “PURE FORMS OF CRYSTALLINE ATICAPRANT” (Janssen Pharmaceuticals, Inc., priority 2022, published 2025)
# Legend:
# [1] = Body weight by treatment group, Example 5 study; assay type: in vivo, human
# Excerpt: Treatment with the chemically and/or enantiomerically pure aticaprant described herein, e.g., chemically and/or enantiomerically pure crystalline Form III of aticaprant, or compositions containing the same as described herein has several advantages over the treatments in the art. […] As used herein, the term “weight gain” refers to an increase in the weight of patient, relative to the weight of the patient before taking the chemically and/or enantiomerically pure aticaprant described herein, e.g., chemically and/or enantiomerically pure crystalline Form III of aticaprant, or compositions containing the same or the weight of the patient that is assessed at the time of the initial administration of the chemically and/or enantiomerically pure aticaprant described herein, e.g., chemically and/or enantiomerically pure crystalline Form III of aticaprant, or compositions containing the same. In certain embodiments, the patient may actually see a decrease in overall weight, relative to the weight of the patient before taking the chemically and/or enantiomerically pure aticaprant described herein, e.g., chemically and/or enantiomerically pure crystalline Form III of aticaprant, or compositions containing the same.
# At the lead-in baseline timepoint, the mean weight for subjects in the placebo group was 76.17 kg compared to 78.66 in the aticaprant group. After 6 weeks in the double-blind treatment phase, the mean weight in the placebo group was 75.75 kg compared to 78.57 kg in the aticaprant group. […] This is unexpected because other adjunctive treatments for MDD result in a mean weight increase. See, Thase M, et al. J Clin Psych. 2015: 76 (9), 1224-1231; Thase, J Clin Psych. 2015, 76 (9): 1232-1240; El Khalili, Int J Neuropsychopharmacol. 2010, 13, 917-932; Marcus, J. Clin. Psychopharmacol. […] Nashville, Tenn, ACNP, 2008; Earley, American College of Neuropsychopharmacology, 2007, Annual Meeting Abstracts (Boca Raton, Fla, Dec. 9-13, 2007). Nashville, TN, ACNP, 2007). See, Table 48.
# [2] = Solid-state characterization of Form III (GVS, TGA); assay type: physicochemical
# [3] = ICH M7 class of impurity (DNA reactive / mutagenic impurities)
smiles,measurement,setting,value
"Cc1cc(C)cc(C2CCCN2Cc2ccc(Oc3ccc(C(N)=O)cc3F)cc2)c1 (stereo not drawn) [aticaprant, 3-fluoro-4-4-2-(3,5-dimethylphenyl) pyrrolidin-1-yl-methylphenoxybenzamide]",weight over the 6-week double blind treatment period,[1]; both groups,remained relatively stable
same,"Mean weight, Absolute Change (Withdrawal − Lead-in)",[1]; n = 85,-0.09 kg
same,"Mean weight, Lead-in Baseline, mean (SE)",[1]; n = 85,78.66 (1.65) kg
same,"Mean weight, Relative % Change",[1]; n = 85,−0.11%
same,"Mean weight, Screening, mean (SE)",[1]; n = 85,78.42 (1.65) kg
same,"Mean weight, Withdrawal Baseline, mean (SE)","[1]; n = 85, after 6 weeks double-blind treatment",78.57 (1.71) kg
Cc1cc(C)cc([C@@H]2CCCN2Cc2ccc(Oc3ccc(C(N)=O)cc3F)cc2)c1 [Form III],TGA degradation onset,[2],Degradation onset ~250 °C
same,XRPD after GVS,[2],XRPD unchanged after GVS
Cc1cc(C)cc([C@@H]2CCCN2Cc2ccc(Oc3ccc(CN4CCC[C@H]4c4cc(C)cc(C)c4)cc3)cc2)c1 [Impurity 1],Impurity Class (ICH M7 Guideline),[3],Class 5
